Source: patent US12071430B2 (The Johns Hopkins University, priority 2011, dated 2024)
“Also recorded” adds a separate entry of the source. Where two headings read alike, the source gives them in different places.

Tests used:
[1] = system: HUVEC; assay: HUVEC proliferation, [3H]-thymidine incorporation assay; type: cell-based, human; details: for Proliferation (IC50/IC50 Itra): HUVEC IC50 relative to itraconazole; for IC50: [3H]-thymidine incorporation, unit inferred, values in μM, read-out: Proliferation IC50
Description: The inhibitory effects of the new analogs on HUVEC proliferation were measured using a [3H]-thymidine incorporation assay. The log P values, used as an indicator of lipophilicity, were calculated using ALOGPS2.1 software. Aqueous solubility is a key physiochemical property relevant for oral absorption. We determined the solubility of each analog in 0.001 N HCl (pH=3), which represents the acidic human gastric fluid.
HUVEC Culture and Proliferation Assays. HUVEC (Lonza) were grown in EGM-2 bullet kit media (Lonza) and used at passage eight or lower. The H thymidine incorporation assays were conducted as previously described. Briefly, cells were seeded on 96-well plate at a concentration of 2000 cells/well and allowed to settle overnight. Drugs were added to each well in triplicate. After 24 hours, cells were treated with 1 μCi of [3H] thymidine for 6 h. Then cells were harvested and transferred to filtermats. The scintillation were counted and IC50 were determined using Prism software (version 6.0).

[2] = target: T1, CYP3A4 (Homo sapiens, UniProt P08684); assay: CYP3A4 enzyme assay (Vivid CYP3A4 Green Screening Kit); type: in vitro ADME; details: for CYP3A4 Inhibition (compared to intracozanole at 1 um): % enzyme inhibition at 1 uM drug / % enzyme inhibition at 1 uM itraconazole; for CYP3A4 inhibition, in words: dose response or compared with itraconazole; for CYP3A4 inhibition at 1 μM, in words: initial screening at 1 μM
T1 construct: purchased ThermoFisher P2857; host or cells: baculosomes (insect-cell microsomes, own knowledge)
T1 sequence (P08684 whole entry): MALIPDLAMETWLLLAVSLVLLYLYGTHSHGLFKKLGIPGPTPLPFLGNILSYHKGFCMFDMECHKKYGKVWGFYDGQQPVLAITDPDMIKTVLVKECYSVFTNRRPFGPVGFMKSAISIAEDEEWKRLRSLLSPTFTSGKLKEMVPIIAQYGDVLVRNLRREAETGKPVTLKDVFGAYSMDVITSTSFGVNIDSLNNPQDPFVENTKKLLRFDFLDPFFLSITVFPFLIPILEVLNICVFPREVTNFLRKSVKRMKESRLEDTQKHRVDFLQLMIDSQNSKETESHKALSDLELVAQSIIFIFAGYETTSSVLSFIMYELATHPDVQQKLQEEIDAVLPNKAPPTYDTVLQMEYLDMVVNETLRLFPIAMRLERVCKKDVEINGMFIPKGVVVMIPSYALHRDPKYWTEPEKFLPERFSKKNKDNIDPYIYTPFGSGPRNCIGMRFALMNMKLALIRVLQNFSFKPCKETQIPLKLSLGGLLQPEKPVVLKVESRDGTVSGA
Description: And CYP3A4 inhibition was initially determined using a cell-free fluorescence-based assay at a final concentration of 1 μM (Table 2).
CYP3A4 enzyme assay. CYP3A4 enzyme activity was tested using Vivid™ CYP3A4 Green Screening Kit (ThermoFisher, #P2857) using the manufacturer's protocol. Briefly, CYP3A4 baculosomes and drugs were incubated 10 min at 37° C. Then Vivid® Substrates were added and the fluorescence (ex/em:485/520) were read every 1 min for 60 minute.

Compound | HUVEC proliferation / anti-angiogenic potency compared to itraconazole, in words ([1]; HUVEC) | Proliferation (IC50/IC50 Itra) [1] | CYP3A4 Inhibition (compared to intracozanole at 1 um) [2] | CYP3A4 inhibition, in words [2] | CYP3A4 inhibition at 1 μM, in words [2] | IC50 ([1]; Homo sapiens, HUVEC) [µM] | IC50 ([1]; HUVEC) [µM]
CCC(C)n1ncn(-c2ccc(N3CCN(c4ccc(OC[C@@H]5CO[C@@](Cn6ccnc6)(c6ccc(Cl)cc6Cl)O5)cc4)CC3)cc2)c1=O (stereo partly drawn) [Compound 33, 4-(4-(4-(4-(((2S,4R)-2-((1H-imidazol-1-yl)methyl)-2-(2,4-dichlorophenyl)-1,3-dioxolan-4-yl)methoxy)phenyl)piperazin-1-yl)phenyl)-1-sec-butyl-1H-1,2,4-triazol-5(4H)-one] | higher potency | 0.5 | 1.18 | – | – | – | –
CCC(C)n1ncn(-c2ccc(N3CCN(c4ccc(OC[C@@H]5CO[C@@](Cn6cccn6)(c6ccc(Cl)cc6Cl)O5)cc4)CC3)cc2)c1=O (stereo partly drawn) [Compound 34, 4-(4-(4-(4-(((2S,4R)-2-((1H-pyrazol-1-yl)methyl)-2-(2,4-dichlorophenyl)-1,3-dioxolan-4-yl)methoxy)phenyl)piperazin-1-yl)phenyl)-1-sec-butyl-1H-1,2,4-triazol-5(4H)-one] | – | 1.8 | No inhibition | – | – | – | –
CCC(C)n1ncn(-c2ccc(N3CCN(c4ccc(OC[C@@H]5CO[C@@](Cn6ccnc6C)(c6ccc(Cl)cc6Cl)O5)cc4)CC3)cc2)c1=O (stereo partly drawn) [Compound 35, 1-sec-butyl-4-(4-(4-(4-(((2S,4R)-2-(2,4-dichlorophenyl)-2-((2-methyl-1H-imidazol-1-yl)methyl)-1,3-dioxolan-4-yl)methoxy)phenyl)piperazin-1-yl)phenyl)-1H-1,2,4-triazol-5(4H)-one] | – | 1.0 | 0.85 | – | – | – | –
CCC(C)n1ncn(-c2ccc(N3CCN(c4ccc(OC[C@@H]5CO[C@@](Cn6cnc(C)c6)(c6ccc(Cl)cc6Cl)O5)cc4)CC3)cc2)c1=O (stereo partly drawn) [Compound 38, 1-sec-butyl-4-(4-(4-(4-(((2S,4R)-2-(2,4-dichlorophenyl)-2-((4-methyl-1H-imidazol-1-yl)methyl)-1,3-dioxolan-4-yl)methoxy)phenyl)piperazin-1-yl)phenyl)-1H-1,2,4-triazol-5(4H)-one] | – | 0.6 | 1.18 | – | – | – | –
CCC(C)n1ncn(-c2ccc(N3CCN(c4ccc(OC[C@@H]5CO[C@@](Cn6cc(C(F)(F)F)nc6C)(c6ccc(Cl)cc6Cl)O5)cc4)CC3)cc2)c1=O (stereo partly drawn) [Compound 39, 1-(sec-butyl)-4-(4-(4-(4-(((2S,4R)-2-(2,4-dichlorophenyl)-2-((2-methyl-4-(trifluoromethyl)-1H-imidazol-1-yl)methyl)-1,3-dioxolan-4-yl)methoxy)phenyl)piperazin-1-yl)phenyl)-1H-1,2,4-triazol-5(4H)-one] | – | 2.8 | No inhibition | eliminated CYP3A4 inhibition | eliminated | – | –
CCC(C)n1ncn(-c2ccc(N3CCN(c4ccc(OC[C@@H]5CO[C@@](Cn6cc(C)nc6C)(c6ccc(Cl)cc6Cl)O5)cc4)CC3)cc2)c1=O (stereo partly drawn) [Compound 40, 1-(sec-butyl)-4-(4-(4-(4-(((2S,4R)-2-(2,4-dichlorophenyl)-2-((2,4-dimethyl-1H-imidazol-1-yl)methyl)-1,3-dioxolan-4-yl)methoxy)phenyl)piperazin-1-yl)phenyl)-1H-1,2,4-triazol-5(4H)-one] | – | 3.1 | 0.45 | – | – | – | –
CCC(C)n1ncn(-c2ccc(N3CCN(c4ccc(OC[C@@H]5CO[C@@](Cn6c(C)cnc6C)(c6ccc(Cl)cc6Cl)O5)cc4)CC3)cc2)c1=O (stereo partly drawn) [Compound 41, 1-(sec-butyl)-4-(4-(4-(4-(((2S,4R)-2-(2,4-dichlorophenyl)-2-((2,5-dimethyl-1H-imidazol-1-yl)methyl)-1,3-dioxolan-4-yl)methoxy)phenyl)piperazin-1-yl)phenyl)-1H-1,2,4-triazol-5(4H)-one] | – | 4.5 | 0.27 | – | – | 0.765 | –
CCc1nccn1C[C@@]1(c2ccc(Cl)cc2Cl)OC[C@@H](COc2ccc(N3CCN(c4ccc(-n5cnn(C(C)CC)c5=O)cc4)CC3)cc2)O1 (stereo partly drawn) [Compound 43, 1-(sec-butyl)-4-(4-(4-(4-(((2S,4R)-2-(2,4-dichlorophenyl)-2-((2-ethyl-1H-imidazol-1-yl)methyl)-1,3-dioxolan-4-yl)methoxy)phenyl)piperazin-1-yl)phenyl)-1H-1,2,4-triazol-5(4H)-one] | – | 1.4 | 0.08 | – | – | – | –
CCC(C)n1ncn(-c2ccc(N3CCN(c4ccc(OC[C@@H]5CO[C@@](Cn6ccnc6C(C)C)(c6ccc(Cl)cc6Cl)O5)cc4)CC3)cc2)c1=O (stereo partly drawn) [Compound 45, 1-sec-butyl-4-(4-(4-(4-(((2S,4R)-2-(2,4-dichlorophenyl)-2-((2-isopropyl-1H-imidazol-1-yl)methyl)-1,3-dioxolan-4-yl)methoxy)phenyl)piperazin-1-yl)phenyl)-1H-1,2,4-triazol-5(4H)-one] | – | 0.5 | 0.07 | – | – | 0.084 | –
CCC(C)n1ncn(-c2ccc(N3CCN(c4ccc(OC[C@@H]5CO[C@@](Cn6ccnc6-c6ccccc6)(c6ccc(Cl)cc6Cl)O5)cc4)CC3)cc2)c1=O (stereo partly drawn) [Compound 46, 1-sec-butyl-4-(4-(4-(4-(((2S,4R)-2-(2,4-dichlorophenyl)-2-((2-phenyl-1H-imidazol-1-yl)methyl)-1,3-dioxolan-4-yl)methoxy)phenyl)piperazin-1-yl)phenyl)-1H-1,2,4-triazol-5(4H)-one] | – | 0.8 | 0.27 | – | – | – | –
CCC(C)n1ncn(-c2ccc(N3CCN(c4ccc(OC[C@@H]5CO[C@@](Cn6nc(C)nc6C)(c6ccc(Cl)cc6Cl)O5)cc4)CC3)cc2)c1=O (stereo partly drawn) [Compound 47, 1-sec-butyl-4-(4-(4-(4-(((2S,4R)-2-(2,4-dichlorophenyl)-2-((3,5-dimethyl-1H-1,2,4-triazol-1-yl)methyl)-1,3-dioxolan-4-yl)methoxy)phenyl)piperazin-1-yl)phenyl)-1H-1,2,4-triazol-5(4H)-one] | – | 1.3 | 0.32 | weak inhibition | no CYP3A4 inhibition | 0.22 | 0.221
CCC(C)n1ncn(-c2ccc(N3CCN(c4ccc(OC[C@@H]5CO[C@@](Cn6ncnn6)(c6ccc(Cl)cc6Cl)O5)cc4)CC3)cc2)c1=O (stereo partly drawn) [Compound 49, 4-(4-(4-(4-(((2S,4R)-2-((2H-tetrazol-2-yl)methyl)-2-(2,4-dichlorophenyl)-1,3-dioxolan-4-yl)methoxy)phenyl)piperazin-1-yl)phenyl)-1-sec-butyl-1H-1,2,4-triazol-5(4H)-one] | – | 0.7 | 0.2 | – | – | 0.124 | –
CCC(C)n1ncn(-c2ccc(N3CCN(c4ccc(OC[C@@H]5CO[C@@](Cn6cnc(C)n6)(c6ccc(Cl)cc6Cl)O5)cc4)CC3)cc2)c1=O (stereo partly drawn) [Compound 50, 1-sec-butyl-4-(4-(4-(4-(((2S,4R)-2-(2,4-dichlorophenyl)-2-((3-methyl-1H-1,2,4-triazol-1-yl)methyl)-1,3-dioxolan-4-yl)methoxy)phenyl)piperazin-1-yl)phenyl)-1H-1,2,4-triazol-5(4H)-one] | – | 1.6 | 0.36 | reduced potency | – | – | –
CCC(C)n1ncn(-c2ccc(N3CCN(c4ccc(OC[C@@H]5CO[C@@](Cn6cnc(C(F)(F)F)n6)(c6ccc(Cl)cc6Cl)O5)cc4)CC3)cc2)c1=O (stereo partly drawn) [Compound 51, 1-sec-butyl-4-(4-(4-(4-(((2S,4R)-2-(2,4-dichlorophenyl)-2-((3-(trifluoromethyl)-1H-1,2,4-triazol-1-yl)methyl)-1,3-dioxolan-4-yl)methoxy)phenyl)piperazin-1-yl)phenyl)-1H-1,2,4-triazol-5(4H)-one] | – | 1.6 | No inhibition | reduced potency; also recorded: eliminated CYP3A4 inhibition | – | – | –
CCC(C)n1ncn(-c2ccc(N3CCN(c4ccc(OC[C@@H]5CO[C@@](Cn6nnnc6C)(c6ccc(Cl)cc6Cl)O5)cc4)CC3)cc2)c1=O (stereo partly drawn) [Compound 52, 1-sec-butyl-4-(4-(4-(4-(((2S,4R)-2-(2,4-dichlorophenyl)-2-((5-methyl-1H-tetrazol-1-yl)methyl)-1,3-dioxolan-4-yl)methoxy)phenyl)piperazin-1-yl)phenyl)-1H-1,2,4-triazol-5(4H)-one] | – | 0.6 | 0.08 | – | – | – | –
CCC(C)n1ncn(-c2ccc(N3CCN(c4ccc(OC[C@@H]5CO[C@@](Cn6nnnc6-c6ccccc6)(c6ccc(Cl)cc6Cl)O5)cc4)CC3)cc2)c1=O (stereo partly drawn) [Compound 53, 1-sec-butyl-4-(4-(4-(4-(((2S,4R)-2-(2,4-dichlorophenyl)-2-((5-phenyl-1H-tetrazol-1-yl)methyl)-1,3-dioxolan-4-yl)methoxy)phenyl)piperazin-1-yl)phenyl)-1H-1,2,4-triazol-5(4H)-one] | – | 0.7 | 0.22 | – | – | – | –
